Calls of active or inactive are those of the source.
Assays:
Caspase-3 = target: T1, Caspase-3 (Homo sapiens, UniProt P42574); assay: SAR Analysis of small molecule inhibitors of Sentrin-specific proteases (SENPs) using a Caspase-3 Selectivity assay. [Related pubchem assays (depositor defined):AID2540, AID2599, AID434973, AID489001]; format: functional
T1 sequence (P42574 whole entry): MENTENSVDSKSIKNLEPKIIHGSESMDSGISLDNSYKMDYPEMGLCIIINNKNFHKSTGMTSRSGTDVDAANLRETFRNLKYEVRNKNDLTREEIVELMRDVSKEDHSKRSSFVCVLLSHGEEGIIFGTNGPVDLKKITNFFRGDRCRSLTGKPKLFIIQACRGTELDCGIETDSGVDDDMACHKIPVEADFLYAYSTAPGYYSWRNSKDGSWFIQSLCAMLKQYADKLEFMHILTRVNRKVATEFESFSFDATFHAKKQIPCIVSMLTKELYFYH

[1] = target: T2, Sentrin-specific protease 8 (Homo sapiens, UniProt Q96LD8); format: functional
T2 sequence (Q96LD8 whole entry): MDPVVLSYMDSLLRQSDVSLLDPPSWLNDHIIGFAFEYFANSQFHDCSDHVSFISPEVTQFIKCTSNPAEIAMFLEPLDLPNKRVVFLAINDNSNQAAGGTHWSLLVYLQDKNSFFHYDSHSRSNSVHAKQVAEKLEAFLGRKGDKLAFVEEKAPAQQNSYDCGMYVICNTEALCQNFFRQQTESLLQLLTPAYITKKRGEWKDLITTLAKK

SUMO-activating enzyme = SUMO-activating enzyme (Homo sapiens, UniProt Q9UBT2); assay: SUMOylation inhibitor hit validation, confirmation, SUMOylation inhibitor project, biochemical, AlphaScreen (AID 2018); format: functional
[2] = Luminescence Cell-Based Dose Response HTS to Identify Activators of Luciferase Translation or Activity in H4-C Neuroglioblastoma Cells. [Related pubchem assays: 1829 (Project Summary), 1814 (Primary HTS)]; format: functional
H4 = assay: Luminescence Cell-Based Dose Response HTS to Identify Activators of 5'UTR Stem-Loop Driven Prion Protein mRNA Translation in H4 Neuroglioblastoma Cells. [Related pubchem assays: 1829 (Project Summary), 1814 (Primary HTS)]; format: functional; conditions: Homo sapiens
[3] = target: T3, Heat shock factor protein 1 (Mus musculus, UniProt P38532); assay: HSF1 potentiators in luciferase reporter cells, confirmation, cell-based, NIH3T3, luminescence, dose retest (AID 435004); format: functional;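 further: stress induced by proteasome inhibitor MG132 added 30 min after compound; luciferase reporter driven by HSF1 response element in NIH3T3 cells; actives raise luminescence as potentiators of the MG132 stress response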
T3 sequence (P38532 whole entry): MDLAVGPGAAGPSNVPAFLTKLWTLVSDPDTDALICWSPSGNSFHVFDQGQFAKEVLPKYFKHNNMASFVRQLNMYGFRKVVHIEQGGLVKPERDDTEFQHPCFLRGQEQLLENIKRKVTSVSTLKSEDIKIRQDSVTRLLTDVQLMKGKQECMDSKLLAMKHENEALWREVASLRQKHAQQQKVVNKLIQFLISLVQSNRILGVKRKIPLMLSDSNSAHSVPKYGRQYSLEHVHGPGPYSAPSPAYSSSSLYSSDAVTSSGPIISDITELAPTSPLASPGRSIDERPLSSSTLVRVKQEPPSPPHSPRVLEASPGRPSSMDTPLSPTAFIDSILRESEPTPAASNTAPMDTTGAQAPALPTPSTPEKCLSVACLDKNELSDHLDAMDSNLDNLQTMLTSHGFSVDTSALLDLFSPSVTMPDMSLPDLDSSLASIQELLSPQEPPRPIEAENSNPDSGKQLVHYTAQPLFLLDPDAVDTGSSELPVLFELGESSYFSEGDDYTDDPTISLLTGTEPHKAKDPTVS

[4] = target: T4, Bifunctional protein GlmU (Mycobacterium tuberculosis, UniProt P9WMN3); assay: Inhibitors of Mycobacterial Glucosamine-1-phosphate acetyl transferase (GlmU). Secondary screen.; set-up: species or system Mycobacterium tuberculosis H37Rv
T4 sequence (P9WMN3 whole entry): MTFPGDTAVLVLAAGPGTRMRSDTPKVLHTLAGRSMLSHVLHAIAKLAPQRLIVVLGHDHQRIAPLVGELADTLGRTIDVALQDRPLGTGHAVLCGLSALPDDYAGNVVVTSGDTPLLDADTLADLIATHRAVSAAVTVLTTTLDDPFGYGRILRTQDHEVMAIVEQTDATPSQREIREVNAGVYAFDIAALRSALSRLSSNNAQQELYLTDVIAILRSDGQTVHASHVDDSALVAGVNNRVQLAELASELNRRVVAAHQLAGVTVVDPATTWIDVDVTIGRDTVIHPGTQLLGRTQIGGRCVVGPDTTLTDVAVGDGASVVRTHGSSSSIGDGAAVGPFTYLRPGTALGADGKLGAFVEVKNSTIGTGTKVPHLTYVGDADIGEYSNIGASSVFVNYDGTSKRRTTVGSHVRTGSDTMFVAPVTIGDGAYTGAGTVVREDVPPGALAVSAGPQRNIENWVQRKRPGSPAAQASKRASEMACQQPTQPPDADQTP

Chain of SUMO-activating enzyme (Q9UBE0 whole entry): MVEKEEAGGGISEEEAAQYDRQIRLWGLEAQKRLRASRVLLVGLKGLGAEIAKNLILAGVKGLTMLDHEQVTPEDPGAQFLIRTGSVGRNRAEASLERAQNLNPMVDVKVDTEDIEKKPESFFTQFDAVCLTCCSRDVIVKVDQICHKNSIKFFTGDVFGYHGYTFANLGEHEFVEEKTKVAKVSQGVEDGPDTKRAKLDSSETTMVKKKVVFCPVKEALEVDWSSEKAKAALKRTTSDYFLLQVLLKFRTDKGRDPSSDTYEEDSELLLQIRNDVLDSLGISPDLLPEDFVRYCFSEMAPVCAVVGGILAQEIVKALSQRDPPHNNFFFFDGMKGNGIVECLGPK
Chain of SUMO-activating enzyme (Q9UBT2 whole entry): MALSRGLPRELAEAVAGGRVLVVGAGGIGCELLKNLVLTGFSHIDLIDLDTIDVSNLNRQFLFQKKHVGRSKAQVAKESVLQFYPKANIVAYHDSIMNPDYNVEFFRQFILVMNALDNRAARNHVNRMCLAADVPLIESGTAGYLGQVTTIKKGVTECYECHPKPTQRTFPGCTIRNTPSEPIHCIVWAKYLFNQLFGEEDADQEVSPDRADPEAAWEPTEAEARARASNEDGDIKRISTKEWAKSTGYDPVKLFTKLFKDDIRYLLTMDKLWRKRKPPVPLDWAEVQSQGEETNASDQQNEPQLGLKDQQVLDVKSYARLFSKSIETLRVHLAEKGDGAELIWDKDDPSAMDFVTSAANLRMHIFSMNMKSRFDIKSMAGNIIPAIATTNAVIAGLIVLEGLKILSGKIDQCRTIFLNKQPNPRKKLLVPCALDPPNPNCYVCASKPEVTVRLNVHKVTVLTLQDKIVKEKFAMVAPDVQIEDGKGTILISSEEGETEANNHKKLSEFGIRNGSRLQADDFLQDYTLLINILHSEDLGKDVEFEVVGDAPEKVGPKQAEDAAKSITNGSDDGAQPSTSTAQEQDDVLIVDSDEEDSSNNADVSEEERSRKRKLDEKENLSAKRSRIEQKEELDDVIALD

## COc1cc(C(=O)c2nccc3cc(OC)c(OC)cc23)c([N+](=O)[O-])cc1OC
Caspase-3
  IC50: > 99 µM (inactive)
[1]
  IC50: 14.8 µM (active)

## N#Cc1c(O)nc(SCC(=O)N2c3ccccc3Sc3ccccc32)nc1-c1ccccc1
SUMO-activating enzyme
  IC50: 5.15 µM (active)

## c1ccc2c(Nc3nnc(-c4ccncc4)s3)cccc2c1
[2]
  EC50: 1.06 µM (active)
H4
  EC50: 13.8 µM (active)
[3]
  EC50: 42.1 µM (active)

## N=C1S/C(=C\c2ccc(-c3ccccc3C(=O)O)o2)C(=O)N1c1ccc2c(c1)OCO2
[4]
  IC50: 153 µM (active)

Source: ChEMBL document CHEMBL1201862, “PubChem BioAssay data set” (2004)
